Measurements taken from patent US20230257429A1, “PEPTIDE ADJUVANT FOR ITS THERAPEUTIC APPLICATIONS IN VIRAL AND TUMOUR VACCINE DEVELOPMENT AND CANCER IMMUNOTHERAPY AND AUTOIMMUNE DISEASE DIAGNOSIS AND TREATMENTS” (National University of Singapore, priority 2020, published 2023).
Peptide text beside a SMILES is read from it.

What was measured:
[1] = system: dendritic cells (DC) and macrophages; details: Wu et al. 2021; cited from earlier work
PBMC [2] = experiment: Peptide binding to and penetration of PBMC, flow cytometry; assay type: cell-based, human; details: for cell surface binding of peptide at 37° C.: PBMC gated for monocytes, B cells, T cells; for cell surface binding of peptide at 37° C. / intracellular peptide at 37° C.: 1 hr; for intracellular peptide at 4° C.: B cells and T cells, permeabilized; for intracellular peptide at 37° C.: permeabilized cells
Experimental: PBMC re-suspended in 100 μl macrophage serum free media (3×10^6/ml) were incubated with different peptides (200 μg/ml). PBMC (100 μl) were incubated with the peptides for 1 hr at 37° C. or 4° C. Cells were washed twice in 2% FBS/PBS and incubated with streptavidin-AF488 and Zombie (NIR) Fixable viability stain-APC-Cy7 for 30 min at 4° C. Cells were then fixed with 1% PFA for 30 min at room temperature and analysed using the Fortessa analyser (BD). In some experiments, PBMC were, after incubation with peptides, incubated with Zombie (NIR) Fixable viability stain (APC-Cy7) for 30 min at 4° C. Cells were then fixed and permeabilized with BD CYTOFIX/CYTOPERM™ Kit for 20 min at 4° C., and then incubated with streptavidin-AF488 for 30 min at 4° C. In some experiments, PBMC were, after incubation with the peptides, stained with fluorescent mouse antibodies specific for monocytes (CD14/BV711), T cells (CD3/PerCP-Cy5-5) and B cells (CD19/Pacific blue). Cells were then stained with Zombie (NIR) Fixable viability stain-APC-Cy7 and streptavin-AF488, with or without membrane permeabilization. In these experiments, monocytes, T cells and B cells were separately gated to detect surface peptide binding and intracellular peptide penetration.

monocytes [3] = experiment: Monocyte activation, TNFα and IL-1β ELISA; assay type: cell-based, human
Experimental: (§1) Buffy coat fractions were obtained from healthy blood donors at the Singapore Health Sciences Authority, with Institutional ethics approval, and PBMC were isolated using Ficoll-Paque (GE Healthcare). To isolate monocytes, PBMC were re-suspended to 1×10^7 cells/ml in the RPMI medium contained 5% (v/v) BCS and incubated for 1 hr in T75 flasks (20 ml/flask). Monocytes that adhered were harvested. To culture macrophages and DC [Cao, W., et al., Blood 107: 2777-2785, (2006), incorporated herein by reference], monocytes were resuspended to 1×10^6 cells/ml and cultured in 6-well plates (2 ml/well). Macrophages were cultured by adding M-CSF to 20 ng/ml and DC were cultured with 20 ng/ml GM-CSF and 40 ng/ml IL-4. M-CSF, GM-CSF and IL-4 were obtained from R&D Systems (Mineapolis, Minn.). Cells were cultured for 6 days with half of the media being replenished every two days.
[…] Where TLR ligands were used to stimulate these cells, they were added to the media: LPS (500 ng/ml for DC and macrophages and 10 ng/ml for PMBC and monocytes, InvivoGen), flagellin (1 μg/ml, InvivoGen), lipoteichic acid (LTA, 10 μg/ml). Cell activation was determined by measuring TNFα and IL-1β in the culture media using ELISA kits (Invitrogen).

TLR2 [4] = molecular target: T1, TLR2 (Homo sapiens, UniProt O60603); experiment: TLR2 binding assay (ELISA plate); design: purchased R&D Systems; details: TLR2 coated 2 μg/ml
Target sequence in this assay (O60603 21-590 limits assumed): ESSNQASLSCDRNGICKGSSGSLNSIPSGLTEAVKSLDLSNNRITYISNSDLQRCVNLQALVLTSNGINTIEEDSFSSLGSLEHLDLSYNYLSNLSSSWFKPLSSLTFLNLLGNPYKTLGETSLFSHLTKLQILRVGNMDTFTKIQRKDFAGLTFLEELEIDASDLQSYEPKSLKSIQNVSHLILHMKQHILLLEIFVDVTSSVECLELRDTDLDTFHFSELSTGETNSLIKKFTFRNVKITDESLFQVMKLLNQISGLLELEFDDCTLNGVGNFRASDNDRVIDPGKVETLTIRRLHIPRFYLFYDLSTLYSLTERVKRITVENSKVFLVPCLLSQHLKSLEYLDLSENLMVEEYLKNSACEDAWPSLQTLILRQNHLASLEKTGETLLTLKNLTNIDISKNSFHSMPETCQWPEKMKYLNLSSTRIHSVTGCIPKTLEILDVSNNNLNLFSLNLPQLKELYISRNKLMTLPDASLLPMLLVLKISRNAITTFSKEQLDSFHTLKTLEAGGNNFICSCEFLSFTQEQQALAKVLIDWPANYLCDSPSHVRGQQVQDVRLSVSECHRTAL

red blood cells (RBC) = experiment: Hemolytic assay; assay type: cell-based, human; details: 1 hr at 37° C., normalized to Triton X-100
Experimental: Buffy coats were used as a source of red blood cells (RBC). Buffy coat (2 ml) was washed first in 10 ml of 150 mM NaCl and then washed twice in PBS (pH 7.4) by centrifugation for 5 min at 500 g. The cell pellets were resuspended in 10 ml of PBS as RBC stocks. The different peptides were diluted in PBS (100 μg/ml) and, in triplicates, the peptides were added to V-bottom 96-well plates at 10 μl/well. As controls, the same volumes of PBS or 20% (v/v) Triton X-100 were added. RBC were diluted 50 times in PBS and added to the plates at 190 μl/well. After incubation for 1 hr at 37° C., the plates were centrifuged for 5 min at 500 g. The supernatants (100 μl/well) were transferred to flat bottom plates and absorbance was measured at OD405. Data were normalized to the average OD405 readings obtained with 1% (v/v) Triton X-100 and presented as percentage hemolysis.

TLR5 = molecular target: T2, TLR5 (Homo sapiens, UniProt O60602); experiment: TLR and NF-κB-luciferase assay in 293T cells, TLR5; assay type: cell-based; details: protein-coated plates
T2 construct: expressed in transfected cells; host or cells: human embryonic kidney 293T cells
Experimental: (§2) TLR-mediated NF-κB activation was determined using a Dual Luciferase Reporter Assay (Promega), in which two luciferase reporter plasmids were used. One plasmid expresses the firefly luciferase under the regulation of inducible NF-κB promoter and the other plasmid expresses the Renilla luciferase under a constitutively active CMV promoter [Zhang, H., et al., FEBS Lett 532: 171-176 (2002)]. Besides these luciferase vectors, cells were co-transfected with vectors coding for human TLRs or, in the case of TLR4, co-transfected with CD14 and MD2 [according to Zhang, H., et al., J. FEBS Lett 532: 171-176 (2002), incorporated herein by reference]. Transfection was performed using the TurboFect Transfection Reagent (Thermo Fisher Scientific). After 24 hr, cells were harvested and cultured for 24 hr in 96-well plates coated with the purified proteins or, as controls, cultured in blank plates but stimulated with TLR ligands. Cells were lysed to measure both firefly and Renilla luciferase activities and, in each sample, the firefly activity was normalized to the Renilla luciferase activity and expressed as relative NF-κB activation. […]

PBMC [5] = experiment: PBMC activation, TNFα and IL-1β ELISA; assay type: cell-based, human; details: protein coated on plates, 24 hr, ELISA
Experimental: as §1
Purified proteins in PBS (30 μg/ml) were coated in triplicates in 96-well plates (50 μl/well) for 12 hr and PBMC (3×10^6 cells/ml), monocytes (1×10^6 cells/ml), macrophages (0.5×10^6 cells/ml) or DC (0.5×10^6 cells/ml) were re-suspended in macrophage serum-free medium containing penicillin and streptomycin and cultured for 24 hr in these plates at 100 μl/well. Where TLR ligands were used to stimulate these cells, they were added to the media: LPS (500 ng/ml for DC and macrophages and 10 ng/ml for PMBC and monocytes, InvivoGen), flagellin (1 μg/ml, InvivoGen), lipoteichic acid (LTA, 10 μg/ml). Cell activation was determined by measuring TNFα and IL-1β in the culture media using ELISA kits (Invitrogen).

monocytes [6] = experiment: TLR-blocking antibody pre-incubation before stimulation, TNFα; assay type: cell-based, human; details: monocytes pre-incubated with blocking antibody
Experimental: In some experiments, cells were pre-treated with the MyD88 inhibitor st-2825 (MedChemExpress) or the Caspase-1 inhibitor Ac-YVAD (InvivoGen) for 1 hr before stimulation with TLR ligands or the purified nuclear proteins. In some other experiments, cells were pre-incubated for 1 hr with anti-TLR2, TLR4 and TLR5 antibodies (InvivoGen) before stimulation. The optimal st-2825 and Ac-YVAD concentrations were determined based on both their effects on cell viability and LPS-induced cytokine production. Cell viability was determined using the CELLTITER 96® AQueous One Solution Cell Proliferation (MTS) Assay (Promega).
Therefore, TLR2 is clearly a sensing receptor for NCL as well as HMGB1. We then further analyzed the contribution of TLR2, TLR4 and TLR5 to NCL and HMGB1 recognition in their natural cellular contexts. Monocytes were pre-incubated with antibodies that were known to block each of these TLRs and then stimulated with the respective microbial ligands i.e. lipoteichoic acid (LTA), LPS and flagellin (FIG. 3E). […] NCL is a 710-amino acid protein and it is interesting to identify the specific NCL region that activates TLR2.

PBMC [7] = experiment: PBMC activation, TNFα and IL-1β ELISA; assay type: cell-based, human; details: 2.5, 5.0, 10, 14, 18 and 24 hr
TLR4/CD14/MD2 = molecular target: T3, TLR4/CD14/MD2 (Homo sapiens, UniProt O00206); experiment: TLR and NF-κB-luciferase assay in 293T cells, TLR4/CD14/MD2; assay type: cell-based; details: on top of high TLR4 autoactivation
T3 construct: expressed in transfected cells; host or cells: human embryonic kidney 293T cells
Experimental: as §2

TLR2 [8] = molecular target: T1, TLR2; experiment: TLR and NF-κB-luciferase assay in 293T cells, TLR2/TLR1/TLR6/TLR10; assay type: cell-based; design: expressed in transfected cells; host or cells: human embryonic kidney 293T cells
Experimental: TLR-mediated NF-κB activation was determined using a Dual Luciferase Reporter Assay (Promega), in which two luciferase reporter plasmids were used. […] Transfection was performed using the TurboFect Transfection Reagent (Thermo Fisher Scientific). After 24 hr, cells were harvested and cultured for 24 hr in 96-well plates coated with the purified proteins or, as controls, cultured in blank plates but stimulated with TLR ligands. Cells were lysed to measure both firefly and Renilla luciferase activities and, in each sample, the firefly activity was normalized to the Renilla luciferase activity and expressed as relative NF-κB activation.
TLRs and, where it required, co-receptors were co-transfected in a total of 4 combinations, i.e. TLR2/1/6/10, TLR4/CD14/MD2, TLR5, or TLR3/7/8/9. Two luciferase expression vectors were used: one expresses the firefly luciferase under 5 repeats of the NF-κB gene promoter and the other expresses the Renilla luciferase under the constitutively active CMV promoter (FIG. 3A).
Target sequence in this assay (O60603 21-784): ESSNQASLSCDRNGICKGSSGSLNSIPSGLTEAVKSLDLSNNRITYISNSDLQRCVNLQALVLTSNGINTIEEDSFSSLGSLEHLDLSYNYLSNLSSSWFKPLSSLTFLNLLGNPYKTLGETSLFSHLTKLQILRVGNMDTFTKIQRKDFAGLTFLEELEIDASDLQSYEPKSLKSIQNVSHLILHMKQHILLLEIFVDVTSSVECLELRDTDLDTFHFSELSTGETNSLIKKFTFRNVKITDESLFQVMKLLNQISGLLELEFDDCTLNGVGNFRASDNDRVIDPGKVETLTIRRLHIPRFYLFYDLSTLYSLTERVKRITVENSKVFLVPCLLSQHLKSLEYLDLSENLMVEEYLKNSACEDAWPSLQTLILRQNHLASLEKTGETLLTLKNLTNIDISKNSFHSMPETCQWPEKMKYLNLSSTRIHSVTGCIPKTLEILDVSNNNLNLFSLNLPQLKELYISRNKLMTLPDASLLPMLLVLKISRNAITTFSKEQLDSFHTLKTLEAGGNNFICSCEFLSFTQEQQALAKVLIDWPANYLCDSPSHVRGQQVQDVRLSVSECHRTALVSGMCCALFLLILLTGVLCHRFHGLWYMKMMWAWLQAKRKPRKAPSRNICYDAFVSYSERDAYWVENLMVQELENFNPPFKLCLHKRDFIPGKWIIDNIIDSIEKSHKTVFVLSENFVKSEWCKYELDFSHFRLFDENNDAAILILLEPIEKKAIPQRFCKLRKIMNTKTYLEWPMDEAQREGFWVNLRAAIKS

[9] = system: dendritic cells (DC) and macrophages; experiment: DC and macrophage activation, cytokine ELISA; assay type: cell-based, human; details: protein coated on plates
Experimental: as §1
Purified proteins in PBS (30 μg/ml) were coated in triplicates in 96-well plates (50 μl/well) for 12 hr and PBMC (3×10^6 cells/ml), monocytes (1×10^6 cells/ml), macrophages (0.5×10^6 cells/ml) or DC (0.5×10^6 cells/ml) were re-suspended in macrophage serum-free medium containing penicillin and streptomycin and cultured for 24 hr in these plates at 100 μl/well. […] Cell activation was determined by measuring TNFα and IL-1β in the culture media using ELISA kits (Invitrogen).

T2 sequence (O60602 21-858): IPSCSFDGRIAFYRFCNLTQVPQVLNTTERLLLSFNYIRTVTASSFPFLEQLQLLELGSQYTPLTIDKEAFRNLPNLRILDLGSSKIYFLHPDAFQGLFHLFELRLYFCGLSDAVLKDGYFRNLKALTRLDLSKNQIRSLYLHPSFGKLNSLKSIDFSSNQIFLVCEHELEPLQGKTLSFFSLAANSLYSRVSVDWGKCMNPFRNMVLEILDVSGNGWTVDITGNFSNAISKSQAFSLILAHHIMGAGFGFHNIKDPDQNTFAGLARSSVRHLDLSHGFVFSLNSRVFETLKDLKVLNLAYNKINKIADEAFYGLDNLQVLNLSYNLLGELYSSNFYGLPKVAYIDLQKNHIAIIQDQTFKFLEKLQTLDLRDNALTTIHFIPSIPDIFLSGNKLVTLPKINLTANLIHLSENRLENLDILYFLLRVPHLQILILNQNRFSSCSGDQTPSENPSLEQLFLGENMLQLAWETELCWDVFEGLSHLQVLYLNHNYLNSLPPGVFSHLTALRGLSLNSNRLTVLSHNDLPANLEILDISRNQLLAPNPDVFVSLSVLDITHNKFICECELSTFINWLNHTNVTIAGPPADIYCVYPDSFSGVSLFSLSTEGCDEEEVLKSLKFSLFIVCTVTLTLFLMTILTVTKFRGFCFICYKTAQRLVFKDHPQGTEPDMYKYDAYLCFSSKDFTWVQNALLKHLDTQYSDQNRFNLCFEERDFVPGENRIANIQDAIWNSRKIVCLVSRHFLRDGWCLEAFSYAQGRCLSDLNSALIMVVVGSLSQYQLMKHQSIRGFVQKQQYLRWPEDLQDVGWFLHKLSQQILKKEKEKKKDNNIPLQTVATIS
T3 sequence (O00206 24-839): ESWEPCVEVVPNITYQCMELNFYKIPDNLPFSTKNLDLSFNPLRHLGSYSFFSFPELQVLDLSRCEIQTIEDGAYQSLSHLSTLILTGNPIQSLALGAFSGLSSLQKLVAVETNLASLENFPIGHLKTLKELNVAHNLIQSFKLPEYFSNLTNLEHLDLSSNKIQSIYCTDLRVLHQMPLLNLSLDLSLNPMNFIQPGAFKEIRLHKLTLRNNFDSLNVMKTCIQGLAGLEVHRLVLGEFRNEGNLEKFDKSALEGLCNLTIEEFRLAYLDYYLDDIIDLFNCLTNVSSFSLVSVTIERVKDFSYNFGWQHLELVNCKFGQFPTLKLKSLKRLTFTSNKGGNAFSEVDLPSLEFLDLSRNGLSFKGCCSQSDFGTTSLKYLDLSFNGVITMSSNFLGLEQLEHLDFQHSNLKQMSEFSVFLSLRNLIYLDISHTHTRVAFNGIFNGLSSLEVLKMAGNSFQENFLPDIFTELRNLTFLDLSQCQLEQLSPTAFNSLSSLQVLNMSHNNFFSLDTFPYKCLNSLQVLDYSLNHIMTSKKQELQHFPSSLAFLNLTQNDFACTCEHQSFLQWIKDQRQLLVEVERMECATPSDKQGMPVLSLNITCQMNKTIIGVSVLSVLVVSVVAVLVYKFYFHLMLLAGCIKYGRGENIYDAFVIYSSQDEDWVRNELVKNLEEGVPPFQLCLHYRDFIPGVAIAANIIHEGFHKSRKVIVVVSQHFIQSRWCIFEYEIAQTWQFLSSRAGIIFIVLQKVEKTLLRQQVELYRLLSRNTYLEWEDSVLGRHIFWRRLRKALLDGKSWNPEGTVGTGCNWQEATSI
T3 sequence (Q9Y6Y9 19-160 partner): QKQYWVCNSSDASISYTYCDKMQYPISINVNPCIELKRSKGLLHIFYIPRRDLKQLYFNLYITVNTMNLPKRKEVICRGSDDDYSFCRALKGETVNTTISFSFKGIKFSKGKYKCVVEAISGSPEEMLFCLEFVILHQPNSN

Molecule: GGFGGRGGGRGGRGGFGGRGRGGFGGRGGFRGGRGG (NCL-P2)
- DC activation judged by TNFα induction [1]: activate DC
- intracellular pool / cell penetration (CPP activity) in PBMC (PBMC [2]; 1 hr at 4° C., fixed/permeabilized, streptavidin-AF488): accumulate intracellular pools
- cell surface binding of peptide at 37° C. (PBMC [2]): the majority of monocytes and smaller fractions of B and T cells
- cell surface binding of peptide at 37° C. (PBMC [2]; listed as P2): surface binding was only prominent on PBMC and monocytes
- intracellular peptide at 4° C. (PBMC [2]; monocytes): similarly high intracellular pools of the peptide
- intracellular peptide at 4° C. (PBMC [2]; monocytes, listed as P2): similarly high levels of intracellular P2 peptide irrespective of the temperature of incubation
- surface-bound peptide at 4° C. (PBMC [2]; monocytes, compared with 37° C.): increased significantly
- intracellular peptide at 37° C. (PBMC [2]): much higher level of the peptide was detected in all PBMC
- intracellular peptide at 37° C. (PBMC [2]; listed as P2): similarly high levels of intracellular P2 peptide irrespective of the temperature of incubation
- alarmin activity compared with NCL-P1 (monocytes [3]; monocytes): stronger alarmin activity than NCL-P1
- cytokine induction, soluble versus coated (immobilized) form (monocytes [3]; monocytes, 24 hr): induced more cytokines than immobilized peptides
- cytokines induced by plate-coated peptide compared with NCL-P1 (monocytes [3]; monocytes, peptides coated on plates): induced more cytokines than NCL-P1
- TNFα induced relative to NCL-P1 (monocytes [3]; monocytes, soluble peptide 40 μg/ml): approximately 10 fold
- TNFα induction from monocytes (7 NCL peptides) (monocytes [3]; peptides 50 or 200 μg/ml, 24 hr): induced TNFα
- TNFα induction from monocytes at lower concentrations (monocytes [3]; soluble peptide 10 and 20 μg/ml): induced little TNFα
- TNFα induction from monocytes at higher concentrations (monocytes [3]; soluble peptide 80 and 160 μg/ml): strongly induced TNFα production
- concentration at which saturated TLR2 binding was reached (TLR2 [4]): 3.2 µg/mL
- peptide binding to coated TLR2 (TLR2 [4]; biotin peptides at increasing concentrations): dose-dependent and saturable binding to TLR2

Molecule: CC[C@H](C)[C@H](NC(=O)[C@H](CCCNC(=N)N)NC(=O)[C@H](CCCNC(=N)N)NC(=O)[C@H](CCCNC(=N)N)NC(=O)[C@H](CC(C)C)NC(=O)[C@@H](NC(=O)[C@@H](NC(=O)[C@H](CC(C)C)NC(=O)[C@@H](N)CC(C)C)[C@@H](C)CC)[C@@H](C)CC)C(=O)N[C@@H](CCCNC(=N)N)C(=O)N[C@@H](CCCCN)C(=O)N[C@@H](CCC(N)=O)C(=O)N[C@@H](C)C(=O)N[C@@H](Cc1c[nH]cn1)C(=O)N[C@@H](C)C(=O)N[C@@H](Cc1c[nH]cn1)C(=O)N[C@@H](CO)C(=O)N[C@@H](CCCCN)C(=O)O [CPP5, LLIILRRRIRKQAHAHSK] (H-LLIILRRRIRKQAHAHSK-OH)
- haemolysis (red blood cells (RBC)): clearly haemolytic

Molecule: HMGB1: HMGB1 purified from T×NE as an alarmin control
- NF-κB activation via TLR5 (TLR5): consistently activated TLR5
- TNFα and IL-1β production from PBMC (PBMC [5]): HMGB1 did
- effect of TLR2 antibody on TNFα production induced by the protein (monocytes [6]): significantly inhibited
- effect of TLR4 antibody on TNFα production induced by the protein (monocytes [6]): significantly inhibited
- effect of TLR5 antibody on TNFα production induced by the protein (monocytes [6]): significantly inhibited
- kinetics of IL-1β induction from PBMC (PBMC [7]): rapidly surged to plateau
- kinetics of TNFα induction from PBMC (PBMC [7]): linear early increase but a noticeable late surge
- TNFα and IL-1β production from monocytes (monocytes [3]; protein coated on plates, 24 hr, ELISA): HMGB1 did
- NF-κB activation via TLR4/CD14/MD2 (TLR4/CD14/MD2): marginal but significant additional TLR4 activation
- TLR2 response when expressed without TLR1/TLR6/TLR10 or co-expressed with TLR5 (TLR2 [8]): not significantly affected
- NF-κB activation via TLR2/TLR1/TLR6/TLR10 combination (TLR2 [8]; protein-coated plates, 24 hr): prominent activation
- cytokine production from dendritic cells (DC) and macrophages [9]: also induced cytokine production
